Measurements: PubChem BioAssay AID1963964 (Molecular Pharmacology Branch, DTP, NCI, 2024)

Test system: 997726-040-R-J2-PDC tumor spheroids, viability
Experiment: Anticancer human tumor 997726-040-R-J2-PDC patient-derived squamous cell lung carcinoma cell line growth inhibition [PI3K]
Settings: spheroids with HUVEC and MSC; for viability, T/C: stronger effect = lower value
How it was run: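 Stroma-containing spheroids: tumor line, pooled-donor HUVEC, hMSC. Treatments: targeted agents with PI3K inhibitors. Dosing: clinically relevant, half-log spacing, 10 microM ceiling without known Cmax. Read-out: cell viability.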
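Further: spheroids exposed to compounds for seven days before readout.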

For CC1(C)CCC(CN2CCN(c3ccc(C(=O)NS(=O)(=O)c4ccc(NCC5CCOCC5)c([N+](=O)[O-])c4)c(Oc4cnc5[nH]ccc5c4)c3)CC2)=C(c2ccc(Cl)cc2)C1 + CC(Nc1ccc2c(c1)OCCn1cc(N3C(=O)OCC3C(F)F)nc1-2)C(N)=O, the IC50 (curve of first compound, second compound 0.00316 µM) was 9.17 µM, the IC50 (curve of first compound, second compound 0.01 µM) was 9.25 µM and the IC50 (curve of first compound, second compound 0.0316 µM) was 5.87 µM. For the same compound, the IC50 (curve of first compound, second compound 0.1 µM) was under 0.0316 µM, the IC50 (curve of first compound, second compound 0.316 µM) was under 0.0316 µM and the IC50 (curve of first compound, second compound 1 µM) was under 0.0316 µM. For the same compound, the viability, T/C (second compound 0.00316 µM, first compound 0.0316 µM) was 74.8%, the viability, T/C (second compound 0.00316 µM, first compound 0.1 µM) was 82.8% and the viability, T/C (second compound 0.00316 µM, first compound 0.316 µM) was 92.2%. It also gave a viability, T/C (second compound 0.00316 µM, first compound 1 µM) of 83.6%, a viability, T/C (second compound 0.00316 µM, first compound 3.16 µM) of 73.1% and a viability, T/C (second compound 0.00316 µM, first compound 10 µM) of 48.1%. It also gave a viability, T/C (second compound 0.01 µM, first compound 0.0316 µM) of 64.9%, a viability, T/C (second compound 0.01 µM, first compound 0.1 µM) of 86.6% and a viability, T/C (second compound 0.01 µM, first compound 0.316 µM) of 74.2%. It also gave a viability, T/C (second compound 0.01 µM, first compound 1 µM) of 81.6%, a viability, T/C (second compound 0.01 µM, first compound 3.16 µM) of 70% and a viability, T/C (second compound 0.01 µM, first compound 10 µM) of 48.1%. It also gave a viability, T/C (second compound 0.0316 µM, first compound 0.0316 µM) of 60.8%, a viability, T/C (second compound 0.0316 µM, first compound 0.1 µM) of 63.8% and a viability, T/C (second compound 0.0316 µM, first compound 0.316 µM) of 70.7%. For the same compound, the viability, T/C (second compound 0.0316 µM, first compound 1 µM) was 55%, the viability, T/C (second compound 0.0316 µM, first compound 3.16 µM) was 62.9% and the viability, T/C (second compound 0.0316 µM, first compound 10 µM) was 39.5%. For the same compound, the viability, T/C (second compound 0.1 µM, first compound 0.0316 µM) was 42.5%, the viability, T/C (second compound 0.1 µM, first compound 0.1 µM) was 42.1% and the viability, T/C (second compound 0.1 µM, first compound 0.316 µM) was 43.5%. It also gave a viability, T/C (second compound 0.1 µM, first compound 1 µM) of 37.2%, a viability, T/C (second compound 0.1 µM, first compound 3.16 µM) of 39.8% and a viability, T/C (second compound 0.1 µM, first compound 10 µM) of 28.3%. For the same compound, the viability, T/C (second compound 0.316 µM, first compound 0.0316 µM) was 30.7%, the viability, T/C (second compound 0.316 µM, first compound 0.1 µM) was 33.3% and the viability, T/C (second compound 0.316 µM, first compound 0.316 µM) was 32.9%. The viability, T/C (second compound 0.316 µM, first compound 1 µM) was 29.9%, the viability, T/C (second compound 0.316 µM, first compound 3.16 µM) was 24.1% and the viability, T/C (second compound 0.316 µM, first compound 10 µM) was 15.9%. For the same compound, the viability, T/C (second compound 1 µM, first compound 0.0316 µM) was 27.9%, the viability, T/C (second compound 1 µM, first compound 0.1 µM) was 21.5% and the viability, T/C (second compound 1 µM, first compound 0.316 µM) was 24.5%. It also gave a viability, T/C (second compound 1 µM, first compound 1 µM) of 27.7%, a viability, T/C (second compound 1 µM, first compound 3.16 µM) of 24.8% and a viability, T/C (second compound 1 µM, first compound 10 µM) of 12.3%.
In the case of Cc1nc(NC(=O)N2CCCC2C(N)=O)sc1-c1ccnc(C(C)(C)C(F)(F)F)c1 (centres undefined), the viability, T/C (compound 0.0316 µM) is reported as 91.9% [middle of 8 runs], the viability, T/C (compound 0.1 µM) is reported as 77% [middle of 8 runs] and the viability, T/C (compound 0.316 µM) is reported as 57.5% [middle of 8 runs]. For the same compound, the viability, T/C (compound 1 µM) was 42.9% [middle of 8 runs], the viability, T/C (compound 3.16 µM) was 30.8% [middle of 8 runs] and the viability, T/C (compound 10 µM) was 16.2% [middle of 8 runs]. For the same compound, the IC50 (compound alone, run of 06/12/2023) was 599 nM [middle of 8 runs].
